One assay concerns HT-29. As to the kind of experiment: In vitro tumor cell cytotoxicity (MTT colorimetric growth inhibition). The format is cell-based. The settings on record: Homo sapiens. The procedure:
(§1) The compounds of the present invention were tested for in vitro cytotoxic activity against the tumor lines A549 […], HT-29 […], B16F10 (mouse melanoma) and P-388 (mouse leukemia). Concentrations of 50% growth inhibition (IC50 's) were measured in a colorimetric assay for cytotoxic activity against cultured cells according to the protocol described below:
(§2) A three-day microtiter assay was used to measure the growth inhibition of cultured cells exposed to a range of drug concentrations. Metabolic activity, and thus the continued survival of cells exposed to the test compounds, was measured by the cells' ability to reduce the tetrazolium dye, MTT (3-(4,5-dimethyl-thiazol-2-yl-2,5-diphenyltetrazolium bromide) to a quantifiable colored end product, which absorbs at 570 nm in the visible spectrum.
(§3) Test compounds were dissolved in dimethyl sulfoxide (DMSO) and diluted, first with Earle's Balanced Salt Solution followed by culture medium, to twice the highest concentration of compound to be tested. From this concentrated stock, twofold serial dilutions were prepared in 96-well microtiter trays, each well containing twice the desired final concentration of compound. Each concentration was tested in triplicate and compared to triplicate drug-free controls.
(§4) The cells were grown in the same medium used for diluting the compounds and then harvested using trypsinization. This involved removing the medium by aspiration; rinsing the cell monolayer twice with Earle's Balanced Salt Solution; adding trypsin (0.05%)/EDTA (0.53 mM; for each 25 cm^2, approximately 0.2 mL), tilting to cover the monolayer, and then withdrawing trypsin leaving only a thin film of solution; incubating at room temperature until the cell monolayers detached (as determined by visual and/or microscopic observation); adding medium containing fetal calf serum to stop the action of the trypsin and resuspend the cells; triturating to aid dissociation of cell clumps; and determining the number of cells per milliliter by electronic cell counter (e.g. Coulter Counter) or by mixing an aliquot of cell suspension with Trypan Blue (0.4% in normal saline) and counting the viable cells using a hemacytometer.
(§5) After harvesting and determination of viable cell counts, cell density was adjusted to 25,000 cells/mL. Inoculum (0.1 mL) containing the cells was then added to each well for a final concentration of 2,500 cells per well. Addition of the inoculum diluted the test compounds to the desired final concentration.
(§6) Microtiter trays were then incubated for three days at 36 ° C. in a humidified atmosphere containing 5% carbon dioxide. After three days, 20 microtiters of 5 mg/mL MTT in phosphate-buffered saline solution were added to each well. Trays were returned to the incubator for two to four hours to allow the surviving cells to reduce the dye. Medium and unreduced dye were removed by aspiration. DMSO was added to each well to dissolve the water-insoluble, colored end product of the dye reduction so that it could be measured spectrophotometrically at 570 nm. The IC50 was determined as the concentration of compound tested required to reduce the absorbance at 570 nm to 50% of non-drug treated control values.

In a further assay the test system is A549. Described as above. It is filed as cell-based. The settings on record: Homo sapiens. The procedure: as §1, §2, §3, §4, §5, §6
In a further assay the test system is B16F10. The description is as above. The following applies: B16-F10, 72 h. The format is cell-based, mouse. On the procedure: as §1, §2, §3, §4, §5, §6
The subject of a further assay is P388. The description is as above. The format is cell-based, mouse. The following applies: P388, 72 h. The procedure:
as §1, §2, §3, §4, §5, §6

Assay [1] deals with advanced breast and ovarian cancers. The following applies: cited from earlier work.
In assay [2] the test system is a number of other tumor types. The settings on record: preliminary investigations; cited from earlier work.

In brackets after ≈: the same amount, converted by molar mass. Where two headings read alike, the source gives them in different places.

In general, IC50 refers to the point on the concentration scale where inhibition reaches its midpoint. Consider `CC(=O)O[C@@H]1C2=C(C)[C@@H](OC(=O)[C@H](O)[C@@H](NC(=O)OC(C)(C)C)c3ccccc3)C[C@@](O)([C@@H](OC(=O)c3ccccc3)[C@@H]3[C@]4(OC(C)=O)CO[C@@H]4C[C@H](C)[C@@]13C=O)C2(C)C` [Example 3, 8-tert-Butyloxycarbonylamino-α-hydroxybenzenepropanoic acid 4,9-bis(acetyloxy)-2-benzoyloxy-8-formyl-1.2.3.4.5.6.7.8.10.13.14-undecahydro-1-hydroxy-7.14.14.17-tetramethyl-1.10-methano-20H-cyclonona[2.3]benz[1.2.b]oxet-12-yl ester], for which the IC50 in the assay with HT-29 (72 h, HT-29, three-day microtiter assay, MTT, 570 nm, read-out: IC50) amounted to 5.4 ng/mL (≈ 0.00648 µM); in the assay on A549 (72 h, A549, three-day microtiter assay, MTT, 570 nm, read-out: IC50), 9.8 ng/mL (≈ 0.0118 µM); in the assay with B16F10 (B16F10 (mouse melanoma), three-day microtiter assay, MTT, 570 nm, read-out: IC50) it was 4.6 ng/mL (≈ 0.00552 µM); with P388 (P-388 (mouse leukemia), three-day microtiter assay, MTT, 570 nm, read-out: IC50), 8.3 ng/mL (≈ 0.00995 µM).
With `CC(=O)O[C@@H]1C2=C(C)[C@@H](OC(=O)[C@H](O)[C@@H](NC(=O)c3ccccc3)c3ccccc3)C[C@@](O)([C@@H](OC(=O)c3ccccc3)[C@@H]3[C@]4(OC(C)=O)CO[C@@H]4C[C@H](C)[C@@]13C=O)C2(C)C` [Example 4, β-Benzoylamino-α-hydroxybenzenepropanoic acid 4,9-bis(acetyloxy)-2-benzoyloxy-8-formyl-1.2.3.4.5.6.7.8.10.13.14-undecahydro-1-hydroxy-7.14.14.17-tetramethyl-1.10-m,ethano-20H-cyclonona[2.3]benz[1.2-b]oxet-12-yl ester], the IC50 is 76 ng/mL (≈ 0.0907 µM) with HT-29 (HT-29, 72 h); 17 ng/mL (≈ 0.0203 µM) with A549 (A549, 72 h); 45 ng/mL (≈ 0.0537 µM) in the assay with B16F10 (Mus musculus); 32 ng/mL (≈ 0.0382 µM) with P388 (Mus musculus).
As for `CC(=O)O[C@H]1C(=O)[C@@]2(C)[C@H]([C@H](OC(=O)c3ccccc3)[C@]3(O)C[C@H](OC(=O)[C@H](O)[C@@H](NC(=O)c4ccccc4)c4ccccc4)C(C)=C1C3(C)C)[C@]1(OC(C)=O)CO[C@@H]1C[C@@H]2O` [Paclitaxol, Paclitaxel], the IC50 in the assay on HT-29 (HT-29, 72 h) stood at 2.5 ng/mL (≈ 0.00293 µM); in the assay with A549 (A549, 72 h), 3.4 ng/mL (≈ 0.00398 µM); in the assay on B16F10 (Mus musculus) it was 3.1 ng/mL (≈ 0.00363 µM); in the assay on P388 (Mus musculus) it was 9.6 ng/mL (≈ 0.0112 µM). The “effectiveness in clinical trials” value in assay [1] is “effective against advanced breast and ovarian cancers”. Further, in assay [2], the “activity against other tumor types” value is listed as “promising activity against a number of other tumor types”.
